“And” between values parts separate entries of the source, which are not always exact repeats. Equal entries are not always repeated.
Tested on: MV/FrankfurtMain.DEU/17.11 (genotype D8)
Experiment: White blood cell counts from whole blood
Type: in vivo, squirrel monkeys (Saimiri sciureus)
Settings: for WBC Mean Diff, untreated vs. prophylactic / WBC Mean Diff, untreated vs. therapeutic (d7) / WBC Mean Diff, untreated vs. therapeutic(d3): Dunnett's multiple comparisons test; for Cells [10^3/mm^3], white blood cells / Cells/ml, white blood cells / Counted Cells (Total), white blood cells: individual animals
Method: White blood cell counts, viral load quantification in PBMCs, and quantification of neutralizing antibody titers were performed as follows: for white blood cell counts, blood was diluted 1:100 in 3% acetic acid and cells were counted using a Neubauer chamber. For viral load quantification in PBMCs, blood was centrifuged at 3000 rpm for 15 min and serum was frozen at −20 °C until further use. Red blood cell lysis was performed and the remaining PBMCs were counted using a Neubauer chamber. Viral titers in PBMCs were quantified in quadruplicates using limited dilution method and calculated as TCID50/10^6 PBMCs. Neutralizing antibody titers were quantified by incubating MeV with 2-fold serial dilutions of the respective serum for 20 min at room temperature in quadruplicates. Vero/hSLAM cells were added and incubated for 3 days at 37 °C. Neutralizing antibody titers are expressed as the reciprocal of the highest serum dilution showing no signs of infection. For virus titration from throat swabs, swabs were placed in 150 μl DMEM with 3% penicillin/streptomycin and the titer was quantified by limited dilution method.

Q: What does the source list for `Cn1nc(C(F)(F)F)cc1C(=O)Nc1ccc(S(=O)(=O)N2CCCC[C@H]2CCN2CCOCC2)cc1` [ERDRP-0519]?
A: WBC Mean Diff, untreated vs. prophylactic (Row 1 (0 dpi)): 0.14 10^3cells/mm^3; WBC Mean Diff, untreated vs. therapeutic (d7) (Row 1 (0 dpi)): 2 10^3cells/mm^3; WBC Mean Diff, untreated vs. therapeutic(d3) (Row 1 (0 dpi)): 0.75 10^3cells/mm^3; WBC Mean Diff, untreated vs. prophylactic (Row 2 (3 dpi)): 0.875 10^3cells/mm^3; WBC Mean Diff, untreated vs. therapeutic (d7) (Row 2 (3 dpi)): -2.625 10^3cells/mm^3; WBC Mean Diff, untreated vs. therapeutic(d3) (Row 2 (3 dpi)): -1.042 10^3cells/mm^3; WBC Mean Diff, untreated vs. prophylactic (Row 3 (7 dpi)): -2.333 10^3cells/mm^3; WBC Mean Diff, untreated vs. therapeutic (d7) (Row 3 (7 dpi)): -0.3333 10^3cells/mm^3; WBC Mean Diff, untreated vs. therapeutic(d3) (Row 3 (7 dpi)): -1.375 10^3cells/mm^3; WBC Mean Diff, untreated vs. prophylactic (Row 4 (10 dpi)): -1.958 10^3cells/mm^3; WBC Mean Diff, untreated vs. therapeutic (d7) (Row 4 (10 dpi)): -0.5417 10^3cells/mm^3; WBC Mean Diff, untreated vs. therapeutic(d3) (Row 4 (10 dpi)): -1.167 10^3cells/mm^3; WBC Mean Diff, untreated vs. prophylactic (Row 5 (14 dpi)): -1.375 10^3cells/mm^3; WBC Mean Diff, untreated vs. therapeutic (d7) (Row 5 (14 dpi)): -0.25 10^3cells/mm^3; WBC Mean Diff, untreated vs. therapeutic(d3) (Row 5 (14 dpi)): -4.767 10^3cells/mm^3; WBC Mean Diff, untreated vs. prophylactic (Row 6 (17 dpi)): -1.667 10^3cells/mm^3; WBC Mean Diff, untreated vs. therapeutic (d7) (Row 6 (17 dpi)): -1.333 10^3cells/mm^3; WBC Mean Diff, untreated vs. therapeutic(d3) (Row 6 (17 dpi)): -1.533 10^3cells/mm^3; WBC Mean Diff, untreated vs. prophylactic (Row 7 (21 dpi)): -1.125 10^3cells/mm^3; WBC Mean Diff, untreated vs. therapeutic (d7) (Row 7 (21 dpi)): -1.875 10^3cells/mm^3; WBC Mean Diff, untreated vs. therapeutic(d3) (Row 7 (21 dpi)): -2.402 10^3cells/mm^3; leukopenia (total white blood cell counts) (day 3 treatment group): no leukopenia was observed; total white blood cell counts (day 7 treatment group): a trend for lower total white blood cell counts, but this was not significant; leukopenia (total white blood cell counts) (prophylactic group): no leukopenia was observed; Cells [10^3/mm^3], white blood cells (prophylactic group, 0 dpi): 7.5 10^3/mm^3 and 4.5 10^3/mm^3 and 5.5 10^3/mm^3 and 2.25 10^3/mm^3 and 10.75 10^3/mm^3; Cells/ml, white blood cells (prophylactic group, 0 dpi): 4.50E+06 Cells/ml and 5.50E+06 Cells/ml and 2.25E+06 Cells/ml and 1.08E+07 Cells/ml and 7.50E+06 Cells/ml; Counted Cells (Total), white blood cells (prophylactic group, 0 dpi): 30 and 18 and 22 and 9 and 43; Cells [10^3/mm^3], white blood cells (prophylactic group, 3 dpi): 4.75 10^3/mm^3 (3×) and 4.25 10^3/mm^3 and 4 10^3/mm^3 and 7.25 10^3/mm^3; Cells/ml, white blood cells (prophylactic group, 3 dpi): 4.75E+06 Cells/ml (3×) and 4.25E+06 Cells/ml and 4.00E+06 Cells/ml and 7.25E+06 Cells/ml; Counted Cells (Total), white blood cells (prophylactic group, 3 dpi): 19 (3×) and 17 and 16 and 29; Cells [10^3/mm^3], white blood cells (prophylactic group, 7 dpi): 6 10^3/mm^3 (2×) and 7 10^3/mm^3 and 4.75 10^3/mm^3 (2×) and 6.75 10^3/mm^3; Cells/ml, white blood cells (prophylactic group, 7 dpi): 6.00E+06 Cells/ml (2×) and 7.00E+06 Cells/ml and 4.75E+06 Cells/ml (2×) and 6.75E+06 Cells/ml; Counted Cells (Total), white blood cells (prophylactic group, 7 dpi): 24 (2×) and 28 and 19 (2×) and 27; Cells [10^3/mm^3], white blood cells (prophylactic group, 10 dpi): 4.75 10^3/mm^3 (2×) and 6.5 10^3/mm^3 and 3 10^3/mm^3 and 3.75 10^3/mm^3 and 2 10^3/mm^3; Cells/ml, white blood cells (prophylactic group, 10 dpi): 4.75E+06 Cells/ml (2×) and 6.50E+06 Cells/ml and 3.00E+06 Cells/ml and 3.75E+06 Cells/ml and 2.00E+06 Cells/ml; Counted Cells (Total), white blood cells (prophylactic group, 10 dpi): 19 (2×) and 26 and 12 and 15 and 8; Cells [10^3/mm^3], white blood cells (prophylactic group, 14 dpi): 6 10^3/mm^3 and 3 10^3/mm^3 and 5 10^3/mm^3 (2×) and 3.75 10^3/mm^3 and 2.75 10^3/mm^3; Cells/ml, white blood cells (prophylactic group, 14 dpi): 3.00E+06 Cells/ml and 5.00E+06 Cells/ml (2×) and 3.75E+06 Cells/ml and 2.75E+06 Cells/ml and 6.00E+06 Cells/ml; Counted Cells (Total), white blood cells (prophylactic group, 14 dpi): 24 and 12 and 20 (2×) and 15 and 11; Cells [10^3/mm^3], white blood cells (prophylactic group, 17 dpi): 4.75 10^3/mm^3 and 5.25 10^3/mm^3 and 5.5 10^3/mm^3 and 3.25 10^3/mm^3 and 6.5 10^3/mm^3 and 2.25 10^3/mm^3; Cells/ml, white blood cells (prophylactic group, 17 dpi): 5.25E+06 Cells/ml and 5.50E+06 Cells/ml and 3.25E+06 Cells/ml and 6.50E+06 Cells/ml and 2.25E+06 Cells/ml and 4.75E+06 Cells/ml; Counted Cells (Total), white blood cells (prophylactic group, 17 dpi): 19 and 21 and 22 and 13 and 26 and 9; Cells [10^3/mm^3], white blood cells (prophylactic group, 21 dpi): 5.25 10^3/mm^3 and 3.5 10^3/mm^3 and 7.75 10^3/mm^3 and 2.25 10^3/mm^3 (2×) and 5 10^3/mm^3; Cells/ml, white blood cells (prophylactic group, 21 dpi): 3.50E+06 Cells/ml and 7.75E+06 Cells/ml and 2.25E+06 Cells/ml (2×) and 5.00E+06 Cells/ml and 5.25E+06 Cells/ml; Counted Cells (Total), white blood cells (prophylactic group, 21 dpi): 21 and 14 and 31 and 9 (2×) and 20; WBC group mean (Mean 2) (prophylactic group, Row 1 (0 dpi)): 6.11 10^3cells/mm^3; WBC group mean (Mean 2) (prophylactic group, Row 2 (3 dpi)): 4.958 10^3cells/mm^3; WBC group mean (Mean 2) (prophylactic group, Row 3 (7 dpi)): 5.875 10^3cells/mm^3; WBC group mean (Mean 2) (prophylactic group, Row 4 (10 dpi)): 4.125 10^3cells/mm^3; WBC group mean (Mean 2) (prophylactic group, Row 5 (14 dpi)): 4.25 10^3cells/mm^3; WBC group mean (Mean 2) (prophylactic group, Row 6 (17 dpi)): 4.583 10^3cells/mm^3; WBC group mean (Mean 2) (prophylactic group, Row 7 (21 dpi)): 4.333 10^3cells/mm^3; Cells [10^3/mm^3], white blood cells (therapeutic (d3) group, 0 dpi): 4.25 10^3/mm^3 and 7.75 10^3/mm^3 and 4.75 10^3/mm^3 and 5.75 10^3/mm^3 and 5 10^3/mm^3; Cells/ml, white blood cells (therapeutic (d3) group, 0 dpi): 7.75E+06 Cells/ml and 4.75E+06 Cells/ml and 5.75E+06 Cells/ml and 5.00E+06 Cells/ml and 4.25E+06 Cells/ml; Counted Cells (Total), white blood cells (therapeutic (d3) group, 0 dpi): 17 and 31 and 19 and 23 and 20; Cells [10^3/mm^3], white blood cells (therapeutic (d3) group, 3 dpi): 8.75 10^3/mm^3 and 8.25 10^3/mm^3 (2×) and 6.5 10^3/mm^3 and 5 10^3/mm^3 and 4.5 10^3/mm^3; Cells/ml, white blood cells (therapeutic (d3) group, 3 dpi): 8.25E+06 Cells/ml (2×) and 6.50E+06 Cells/ml and 5.00E+06 Cells/ml and 4.50E+06 Cells/ml and 8.75E+06 Cells/ml; Counted Cells (Total), white blood cells (therapeutic (d3) group, 3 dpi): 35 and 33 (2×) and 26 and 20 and 18
